Reference: patent US9932637B2, “Genetic polymorphisms associated with cardiovascular disorders and drug response, methods of detection and uses thereof” (CELERA CORPORATION, priority 2003, dated 2018)

Test system: patients with prior myocardial infarction (CARE study)
Assay: CARE: association of SNPs with pravastatin treatment in cardiovascular events prevention (logistic regression, odds ratio pravastatin vs placebo by genotype; Table 8)
Assay type: in vivo, human
Settings: for Definite Nonfatal MI, n/total (%) / Fatal CHD/Definite Nonfatal MI, n/total (%): CD6 hCV25922320, All Patients; for Fatal/Nonfatal MI (def & prob), n/total (%) / MI (Fatal/Nonfatal), n/total (%) / Nonfatal MI (def & prob), n/total (%): COL11A1 hCV8400671, All Patients
From the text: In order to identify genetic markers associated with acute coronary events (e.g. MI, stroke, unstable angina, congestive heart failure, etc.) or response to statin treatment for the prevention of coronary events, samples from the Cholesterol and Recurrent Events (CARE) study (a randomized multicentral double-blinded trial on secondary prevention of acute coronary events with pravastatin) (Sacks et al., 1991, Am. J. Cardiol. 68: 1436-1446) were genotyped. A well-documented myocardial infarction (MI) was one of the enrollment criteria for entry into the CARE study. Patients were enrolled in the CARE trial from 80 participating study centers. […] Patients were randomized to receive either 40 mg of pravastatin once daily or a matching placebo. The primary endpoint of the trial was death from coronary heart disease and the median duration of follow-up was 5.0 years (range, 4.0 to 6.2 years). […] Secondary endpoints of other related cardiovascular or metabolic disease events, and changes in clinical variables were also recorded in pravastatin-treated and placebo groups. All individuals included in the study had signed a written informed consent form and the study protocol was approved by the respective Institutional Review Boards (IRBs).
For genotyping SNPs in CARE patient samples, DNA was extracted from blood samples using conventional DNA extraction methods such as the QIA-amp kit from Qiagen. Genotypes were obtained on an ABI PRISM® 7900HT Sequence Detection PCR system (Applied Biosystems, Foster City, Calif.) by kinetic allele-specific PCR, similar to the method described by Germer et al. (Germer S., Holland M. J., Higuchi R. 2000, Genome Res. 10: 258-266).
Statistical analysis for association of SNPs with pravastatin treatment in cardiovascular events prevention (Table 8) was carried out using an overall logistic regression model that included an intercept, a parameter for the effect of a genotype containing two rare alleles versus a genotype containing no rare alleles, a parameter for the effect of a genotype containing one rare allele versus a genotype containing no rare alleles, a parameter for the effect of use of pravastatin versus the use of placebo, and parameters for the interaction effects between SNP genotypes and pravastatin use. The test of the overall model is a chi-square test with two degrees of freedom for analyses containing all three genotypes, and one degree of freedom for analyses containing two genotypes.
Effect sizes were estimated through odds ratios (pravastatin group versus placebo) for carriers of each genotype (groups of 0, 1, and 2 minor allele carriers). The effect was considered to be significant if p-value for testing whether any of the interactions between SNP genotypes and pravastatin use were <0.05. […] Odds ratios less than one indicate that the specific SNP allele has a protective effect and odds ratios greater than one indicate that the specific SNP allele has an adverse effect.

[1] = CCL11 hCV7449808, All Patients, 2 Rare Alleles, Prava, n/total 9/34
[2] = CCL11 hCV7449808, All Patients, Fatal/Non-fatal Atherosclerotic CV Disease
[3] = CCL11 hCV7449808, All Patients, Hosp. for Cardiovascular Disease
[4] = CCL11 hCV7449808, All Patients, Total Cardiovascular Disease Events
[5] = CCL11 hCV7449808, All Patients, Total Coronary Heart Disease Events
[6] = CD6 hCV2553030, All Patients, 0 Rare Alleles, Prava arm
[7] = CD6 hCV2553030, All Patients, 1 Rare Allele, Prava arm
[8] = CD6 hCV2553030, All Patients, 2 Rare Alleles, Prava arm
[9] = CHUK hCV1345898, All Patients, Hosp. for Unstable Angina
[10] = CHUK hCV1345898, All Patients, Non-fatal MI (def & prob)

CC[C@H](C)C(=O)O[C@H]1C[C@H](O)C=C2C=C[C@H](C)[C@H](CC[C@@H](O)C[C@@H](O)CC(=O)O)[C@H]21 [pravastatin]
Total Coronary Heart Disease Events, n/total (%) (CCL11 hCV7449808, All Patients, 2 Rare Alleles, Prava, n/total 4/34): (11.8%) | Fatal/Non-fatal Atherosclerotic CV Disease, n/total (%) (CCL11 hCV7449808, All Patients, 2 Rare Alleles, Prava, n/total 7/34): (20.6%) | Hosp. for Cardiovascular Disease, n/total (%) [1]: (26.5%) | Total Cardiovascular Disease Events, n/total (%) [1]: (26.5%) | Prava vs. Placebo Odds Ratio, 0 Rare Alleles [2]: 0.80 | Prava vs. Placebo Odds Ratio, 1 Rare Alleles [2]: 0.82 | Prava vs. Placebo Odds Ratio, 2 Rare Alleles [2]: 0.21 | Prava vs. Placebo Odds Ratio, 0 Rare Alleles [3]: 0.76 | Prava vs. Placebo Odds Ratio, 1 Rare Alleles [3]: 0.91 | Prava vs. Placebo Odds Ratio, 2 Rare Alleles [3]: 0.16 | Prava vs. Placebo Odds Ratio, 0 Rare Alleles [4]: 0.77 | Prava vs. Placebo Odds Ratio, 1 Rare Alleles [4]: 0.88 | Prava vs. Placebo Odds Ratio, 2 Rare Alleles [4]: 0.14 | Prava vs. Placebo Odds Ratio, 0 Rare Alleles [5]: 0.80 | Prava vs. Placebo Odds Ratio, 1 Rare Alleles [5]: 0.84 | Prava vs. Placebo Odds Ratio, 2 Rare Alleles [5]: 0.16 | Hosp. for Cardiovascular Disease, n/total (%) [6]: (41.5%) | Total Cardiovascular Disease Events, n/total (%) [6]: (43.2%) | Hosp. for Cardiovascular Disease, n/total (%) [7]: (39.9%) | Total Cardiovascular Disease Events, n/total (%) [7]: (40.3%) | Hosp. for Cardiovascular Disease, n/total (%) [8]: (31.3%) | Total Cardiovascular Disease Events, n/total (%) [8]: (33.0%) | Odds ratio pravastatin vs placebo (CD6 hCV2553030, All Patients, Hosp. for Cardiovascular Disease, 0 rare alleles): 0.81 | Odds ratio pravastatin vs placebo (CD6 hCV2553030, All Patients, Hosp. for Cardiovascular Disease, 1 rare allele): 0.78 | Odds ratio pravastatin vs placebo (CD6 hCV2553030, All Patients, Hosp. for Cardiovascular Disease, 2 rare alleles): 0.37 | Odds ratio pravastatin vs placebo (CD6 hCV2553030, All Patients, Total Cardiovascular Disease Events, 0 rare alleles): 0.83 | Odds ratio pravastatin vs placebo (CD6 hCV2553030, All Patients, Total Cardiovascular Disease Events, 1 rare allele): 0.74 | Odds ratio pravastatin vs placebo (CD6 hCV2553030, All Patients, Total Cardiovascular Disease Events, 2 rare alleles): 0.38 | Definite Nonfatal MI, n/total (%) (0 Rare Alleles, Prava arm): (5.7%) | Fatal CHD/Definite Nonfatal MI, n/total (%) (0 Rare Alleles, Prava arm): (7.7%) | Definite Nonfatal MI, n/total (%) (1 Rare Allele, Prava arm): (9.2%) | Fatal CHD/Definite Nonfatal MI, n/total (%) (1 Rare Allele, Prava arm): (12.3%) | Definite Nonfatal MI, n/total (%) (2 Rare Alleles, Prava arm): (4.8%) | Fatal CHD/Definite Nonfatal MI, n/total (%) (2 Rare Alleles, Prava arm): (9.7%) | Odds ratio pravastatin vs placebo (CD6 hCV25922320, All Patients, Definite Nonfatal MI, 0 rare alleles): 0.52 | Odds ratio pravastatin vs placebo (CD6 hCV25922320, All Patients, Definite Nonfatal MI, 1 rare allele): 1.12 | Odds ratio pravastatin vs placebo (CD6 hCV25922320, All Patients, Definite Nonfatal MI, 2 rare alleles): 0.63 | Odds ratio pravastatin vs placebo (CD6 hCV25922320, All Patients, Fatal CHD/Definite Nonfatal MI, 2 rare alleles): 0.92 | Non-fatal MI (def & prob), n/total (%) (CHUK hCV1345898, All Patients, 0 Rare Alleles, Prava, n/total 47/413): (11.4%) | Hosp. for Unstable Angina, n/total (%) (CHUK hCV1345898, All Patients, 0 Rare Alleles, Prava, n/total 68/413): (16.5%) | Non-fatal MI (def & prob), n/total (%) (CHUK hCV1345898, All Patients, 1 Rare Allele, Prava, n/total 69/734): (9.4%) | Hosp. for Unstable Angina, n/total (%) (CHUK hCV1345898, All Patients, 1 Rare Allele, Prava, n/total 110/734): (15.0%) | Non-fatal MI (def & prob), n/total (%) (CHUK hCV1345898, All Patients, 2 Rare Alleles, Prava, n/total 17/354): (4.8%) | Hosp. for Unstable Angina, n/total (%) (CHUK hCV1345898, All Patients, 2 Rare Alleles, Prava, n/total 51/354): (14.4%) | Prava vs. Placebo Odds Ratio, 0 Rare Alleles [9]: 1.38 | Prava vs. Placebo Odds Ratio, 1 Rare Alleles [9]: 0.76 | Prava vs. Placebo Odds Ratio, 2 Rare Alleles [9]: 0.59 | Prava vs. Placebo Odds Ratio, 0 Rare Alleles [10]: 0.86 | Prava vs. Placebo Odds Ratio, 1 Rare Alleles [10]: 0.77 | Prava vs. Placebo Odds Ratio, 2 Rare Alleles [10]: 0.34 | Fatal/Nonfatal MI (def & prob), n/total (%) (0 Rare Alleles, Prava arm): (10.6%) | MI (Fatal/Nonfatal), n/total (%) (0 Rare Alleles, Prava arm): (10.7%) | Nonfatal MI (def & prob), n/total (%) (0 Rare Alleles, Prava arm): (9.6%) | Fatal/Nonfatal MI (def & prob), n/total (%) (1 Rare Allele, Prava arm): (8.2%) | MI (Fatal/Nonfatal), n/total (%) (1 Rare Allele, Prava arm): (8.6%) | Nonfatal MI (def & prob), n/total (%) (1 Rare Allele, Prava arm): (7.7%) | Fatal/Nonfatal MI (def & prob), n/total (%) (2 Rare Alleles, Prava arm): (4.1%) | MI (Fatal/Nonfatal), n/total (%) (2 Rare Alleles, Prava arm): (4.1%)
